Patent US9670261B2 (Sanofi, priority 2012, dated 2017)
In brackets after ≈: the same amount, converted by molar mass. *1 amine or outer side, *2 acyl side, *3 side chain or, on linkers, in order; H or OH if unused. Where a SMILES comes first, the peptide text is derived from it. Side-chain parts run from the residue outwards. [ ]: non-standard residue; d: D form. The star is where a group is joined. γGlu = O=C(O)[C@H](CCC(=O)[*:2])N[*:1]; Palmitoyl = CCCCCCCCCCCCCCCC(=O)*; Aib = CC(C)(N)C(=O)O

Key:
[1] = Chemical stability in solution, 7 days at 25° C. (% remaining peptide); conditions: % remaining peptide after 7 days at 25° C.
Procedure: After that time course, the sample was centrifuged for 20 min at 4000 rpm and the supernatant was analysed with HPLC-UV. For determination of the amount of the remaining peptide, the peak areas of the target compound at t0 and t7 were compared, resulting in “% remaining peptide”, following the equation % remaining peptide=[(peak area peptide t7)×100]/peak area peptide t0.
The chemical stability is expressed as “% remaining peptide”.

female NMRI-mice [2] = experiment: Automated assessment of 22-hours feed intake in mice; type: in vivo; conditions: 0.1 mg/kg s.c.
Procedure: Female NMRI-mice of a body weight between 20 and 30 g were used. Mice were adapted to housing conditions for at least one week and for at least one day single-caged in the assessment equipment, when basal data were recorded simultaneously. On the study day, test product was administered subcutaneously close to the lights-off phase (12 h lights off) and assessment of feed consumption was directly started afterwards. Assessment included continued monitoring over 22 hours, while data are processed as mean over every 30 min. Repetition of this procedure over several days was possible. Restriction of assessment to 22 hours was for practical reasons to allow for reweighing of animals, refilling of feed and water and drug administration between procedures. Results could be assessed as cumulated data over 22 hours or differentiated to 30 min intervals. […] Statistical analyses were performed with Everstat 6.0 by two-way ANOVA on repeated measures and Dunnett's post-hoc analyses. Differences were considered statistically significant at the p<0.05 level. […] Lights-off phase (dark phase) started 4 hours later. […].

[3] = Solubility testing in buffer (HPLC-UV)
female NMRI-mice [4] = experiment: Gastric emptying and intestinal passage in mice; type: in vivo; conditions: 10 μg/kg s.c., versus vehicle control
Procedure: Female NMRI-mice of a body weight between 20 and 30 g were used. Mice were adapted to housing conditions for at least one week. Mice were overnight fasted, while water remained available all the time. On the study day, mice were weighed, single-caged and allowed access to 500 mg of feed for 30 min, while water was removed. At the end of the […], remaining feed was removed and weighed. Then, the test compound/reference compound or its vehicle in the control group was administered subcutaneously. 60 min later, to allow the compound to reach relevant plasma exposure, a coloured, non-caloric bolus was instilled via gavage into the stomach. After another 30 min, the animals were sacrificed and the stomach and the small intestine prepared. The filled stomach was weighed, emptied, carefully cleaned and dried and reweighed. The stomach content, calculated as weight of filled subtracted by the weight of emptied stomach, indicated the degree of gastric emptying. The small intestine was straightened without force and measured in length. Then the distance from the gastric beginning of the gut to the tip of the farthest traveled intestinal content bolus was measured. The intestinal passage was given as ratio in percent of the latter distance and the total length of the small intestine. […] Statistical analyses were performed with Everstat 6.0 by 1-way-ANOVA, followed by Dunnett's as post-hoc test. Dunnett's Test was applied to compare versus vehicle control. Differences were considered statistically significant at the p<0.05 level.

[5] = Pharmacokinetic testing in mice, s.c.; conditions: mouse, in vivo, sc, 1 mg/kg
Procedure: Mice were dosed 1 mg/kg subcutaneously (s.c.). The mice were sacrified and blood samples were collected after 0.25, 0.5, 1, 2, 4, 8, 16 and 24 hours post application. Plasma samples were analyzed after protein precipitation via liquid chromatography mass spectrometry (LC/MS). PK parameters and half-life were calculated using WinonLin Version 5.2.1 (non-compartment model).

[6] = system: female leptin-receptor deficient diabetic db/db mice; experiment: Blood glucose and HbA1c in leptin-receptor deficient diabetic db/db mice (method 3); type: in vivo; conditions: single 100 μg/kg s.c., fed db/db mice
Excerpt: Female BKS.Cg-m+/+Leprdb/J (db/db) and BKS.Cg-m+/+Leprdb/+(lean control) mice were obtained from Charles River Laboratories, Germany, at an age of 9-10 weeks. The animals were housed in groups in a specific pathogen-free barrier facility on a 12-h light/dark cycle with free access to water and rodent-standard chow. After 1 week of acclimatization, blood samples were drawn from the tail without anaesthesia and blood glucose (method: d-glucose hexokinase, hemolysate, AU640 Beckman Coulter) and HbA1c level (method: hemolysate, Cobas6000 c501, Roche Diagnostics, Germany) were determined. […] The volume of administration was 5 mL/kg. The animals had access to water and chow during the experiment, food consumption was determined at all time points of blood sampling. […] Blood sampling was performed by tail incision without anaesthesia. […] At the end of the study, blood samples (tail, no anaesthesia) were analyzed for glucose and HbA1c. […] Statistical analyses were performed with Everstat 6.0 by repeated measures two-way ANOVA and Dunnett's post-hoc analyses. Differences versus vehicle-treated db/db control mice were considered statistically significant at the p<0.05 level. […] At predefined time points, more blood samples were taken to measure blood glucose and generate the blood glucose profile over 24 h. […] Blood glucose and HbA1c were determined before start of treatment and at the end of the study after 4 weeks of treatment. […] Before treatment started, no significant differences in blood glucose levels could be detected between db/db groups, only the lean control animals had significant lower glucose levels. During the 4 weeks of treatment, glucose levels increased in the vehicle-treated db/db control group, indicating a worsening of the diabetic situation.

Question: Which “Stability (pH 4.5)” value ([1]; pH 4.5) does the source give for CCCCCCCCCCCCCCCC(=O)N[C@@H](CCC(=O)NCCCC[C@H](NC(=O)[C@H](CCC(N)=O)NC(=O)[C@@H](NC(=O)[C@H](CO)NC(=O)[C@H](CC(C)C)NC(=O)[C@H](CC(=O)O)NC(=O)[C@H](CO)NC(=O)[C@@H](NC(=O)[C@H](Cc1ccccc1)NC(=O)[C@@H](NC(=O)CNC(=O)[C@H](CCC(N)=O)NC(=O)C(C)(C)NC(=O)[C@@H](N)Cc1ccc(O)cc1)[C@@H](C)O)[C@@H](C)O)[C@@H](C)CC)C(=O)N[C@@H](CC(=O)O)C(=O)N[C@@H](CO)C(=O)N[C@@H](CCCNC(=N)N)C(=O)N[C@@H](C)C(=O)N[C@@H](C)C(=O)N[C@@H](CCC(N)=O)C(=O)N[C@@H](CC(=O)O)C(=O)N[C@@H](Cc1ccccc1)C(=O)N[C@H](C(=O)N[C@@H](CCC(=O)O)C(=O)N[C@@H](Cc1c[nH]c2ccccc12)C(=O)N[C@@H](CC(C)C)C(=O)N[C@@H](CCCCN)C(=O)N[C@@H](CC(N)=O)C(=O)NCC(=O)NCC(=O)N1CCC[C@H]1C(=O)N[C@@H](CO)C(=O)N[C@@H](CO)C(=O)NCC(=O)N[C@@H](C)C(=O)N1CCC[C@H]1C(=O)N1CCC[C@H]1C(=O)N1CCC[C@H]1C(=O)N[C@@H](CO)C(N)=O)[C@@H](C)CC)C(=O)O [SEQ ID NO: 13, Y-Aib-Q-G-T-F-T-S-D-L-S-I-Q-K(γE-x53)-DSRAAQDFIEWLKNGGPSSGAPPPS-NH2] (H-Y[Aib]QGTFTSDLSIQK([γGlu-Palmitoyl])DSRAAQDFIEWLKNGGPSSGAPPPS-NH2) here?
Answer: 86.8%

Question: And the “Stability (pH 7.4)” value ([1]; pH 7.4)?
Answer: 95.9%

Question: And the “reduction of feed intake after 22 hours” value (female NMRI-mice [2])?
Answer: 93%

Question: What about the solubility at 2 h ([3]; pH 4.5) of the same molecule?
Answer: 268 µg/mL (≈ 59.4 µM)

Question: And the solubility at 2 h ([3]; pH 7.4)?
Answer: > 1000 µg/mL

Question: What about the “increase of remaining gastric contents” value (female NMRI-mice [4]) of the same molecule?
Answer: 40%

Question: What about the “reduction of intestinal passage” value (female NMRI-mice [4]) of the same molecule?
Answer: 60%

Question: What about the Cmax [5] of the same molecule?
Answer: 3790 ng/mL

Question: And the half-life [5]?
Answer: 3.1 h

Question: What about the “blood glucose compared to db/db control mice, 24 h profile” value [6] of the same molecule?
Answer: significant decrease in blood glucose
